Results: US5449694A, “(-)-ritodrine, therapeutic compositions and use, and method of preparation” (priority 1992, dated 1995)
Like-named read-outs stand apart in the source and are kept apart here.

Legend:
[1] = system: guinea pig tracheal smooth muscle; test: Effect on an isolated preparation of tracheal muscle in guinea pig (relaxation); design: species or system Hartley guinea pig; conditions: for relaxation response of tracheal muscle: 10^-8 -10-4M; for IC50: Cavia porcellus, read-out: concentration required for relaxing 50% of the maximum relaxation effect (IC50); for sequence of intensities of relaxation activity: decreasing sequence
Experimental: (§1) Effect on an Isolated Preparation of Tracheal Muscle in Guinea Pig
After Hartley guinea pigs having body weight of 430-510 g, were anesthesized with ether, tracheae were excised to make chain preparation according to the method of Akcasu (A. Akcasu, Arch. Int. Pharmacodyn., 1959, 122, 201). The preparations were suspended in a Magnus tube filled with an air-saturated nutrient solution (Tyrode solution) maintained at 37°±1° C. Contractile tension was measured via an isotonic transducer and recorded on a polygraph. Either (±)-ritodrine hydrochloride, (+)-ritodrine hydrochloride or (-)-ritodrine hydrochloride was cumulatively applied so as the concentration in the Magnus tube to be 10^-8 -10-4M.

[2] = system: guinea pig; test: Effect on vascular permeability (Evans blue dye infiltration, skin); format: in vivo, Hartley guinea pig
Experimental: Effect on Vascular Permeability
Three Hartley guinea pigs were employed. (±)-Ritodrine hydrochloride, (+)-ritodrine hydrochloride or (-) -ritodrine hydrochloride were administered intracutaneously at a dose of 10^-2 -10^-5 g/ml into the shaved rear part of the guinea pigs. Immediately after the administration, 1 ml of a 1% Evans blue solution was administered intravenously. After 30 minutes, the animals were slaughtered by exsanguination under anesthetization with excessive amount of pentobarbital sodium. The skin was peeled to observe from the internal side of the skin the extent of dye infiltration at the site where the test material was administered. The area with dye having a size ([longer diameter+shorter diameter]/2) of 5 mm or more was judged positive.

[3] = system: uterus in situ; test: Effect on uterine movement in situ (oxytocin-facilitated, pregnant rat); format: in vivo, pregnant Wistar rat; conditions: for ED50 / minimal effective dose: Rattus norvegicus, iv; for ED50: read-out: concentration (dose) required for suppressing 50% of the increase of the uterus due to oxytocin; for minimal effective dose: read-out: dose at which suppressing effect on uterine movement was exhibited; for concentration dependence of suppressing effect: i.v., 0.05-15 mg/kg
Description: Effect on Uterine Movement in Situ
After a pregnant Wistar rat was anesthesized with urethane-α-chloralose, the abdominal part was incised along the median line and a polyethylene cylinder was inserted. The center of the uterine horn was suspended with a suture, and the uterine movement was isotonically recorded via an isotonic transducer. When the spontaneous movement of the uterus was stabilized, 50 mU/kg/min of oxytocin was infused intravenously to facilitate the movement. When the response due to oxytocin became constant, either (±)-ritodrine hydrochloride, (+)-ritodrine hydrochloride or (-)-ritodrine hydrochloride (0.05-15 mg/kg) was administered intravenously to observe the variation of tension and frequency and amplitude of the spontaneous movement. The suppressing effect of the uterine movement on respective parameters was expressed as the intensity of the activity by either (±)-ritodrine hydrochloride, (+)-ritodrine hydrochloride or (-)-ritodrine hydrochloride based on the state facilitated by oxytocin as 100%. The variations of the tension, and the frequency and amplitude of the spontaneous movement are shown in Tables 2, 3 and 4, respectively. […] In either parameter, the (-)-isomer was effective in a concentration of 1/2-1/3 to the (±)-isomer. The (+)-isomer was effective at a dose of 1.5 mg/kg or more.

[4] = system: isolated rat myometrium; test: Effect on an isolated rat myometrium preparation (oxytocin-induced contraction); design: species or system female virgin Wistar rat; conditions: for IC50: read-out: concentration required for suppressing 50% of the contraction of an isolated myometrium caused by oxytocin (IC50); for minimal effective concentration: read-out: concentration at which relaxation activity was exhibited; for concentration dependence of relaxation activity: 10^-7 -10^-4 M
Experimental: (§2) Effect on an Isolated Rat Myometrium Preparation
(§3) After blowing the cranium of a female virgin Wistar rat, uterus was extracted. The preparation was suspended in a Magnus tube filled with a nutrient solution (Tyrode solution) which was maintained at 36°±1° C. and saturated with a mixed gas of 95% O2 and 5% CO2. Contractile tension was measured via an isotonic transducer and recorded on a polygraph. When the spotaneous movement was stabilized, oxytocin (2×10^-2 U/ml) was administered and either (±)-ritodrine hydrochloride, (+)-ritodrine hydrochloride or (-)-ritodrine hydrochloride (10^-7 -10^-4 M) was applied to the Magnus tube to observe the variation of the contractile tension. Suppresive effect on the oxytocin-contracted uterus was expressed by the intensity of activity of (±)-ritodrine hydrochloride, (+)-ritodrine hydrochloride or (-)-ritodrine hydrochloride based on 100% of the contraction by oxytocin.

[5] = Acute toxicity test in mouse (i.v.); format: in vivo, male ICR mice; conditions: mouse, in vivo, iv
Experimental: (§4) Acute Toxicity Test in Mouse
(§5) (±)-Ritodrine hydrochloride, (+)-ritodrine hydrochloride or (-)-ritodrine hydrochloride was administered intravenously at a dose of 40-100 mg/kg to male ICR mice to examine their motality.

[6] = system: mice; test: Acute toxicity test in mouse (i.v.); format: in vivo, male ICR mice
Experimental: as §4, §5

[7] = cited from earlier work
[8] = system: smooth muscle (myometrium and tracheal muscle); test: Smooth muscle relaxation activity, myometrium and tracheal muscle taken together; design: species or system rat, guinea pig; conditions: from the activities on myometrium and tracheal muscle
Experimental: as §2, §3, §1
After Hartley guinea pigs having body weight of 430-510 g, were anesthesized with ether, tracheae were excised to make chain preparation according to the method of Akcasu (A. Akcasu, Arch. Int. Pharmacodyn., 1959, 122, 201). […] Contractile tension was measured via an isotonic transducer and recorded on a polygraph. […]

[9] = hydrochlorides, cumulative application, Tyrode solution 37°C
[10] = oxytocin 50 mU/kg/min i.v. infusion
[11] = tension, frequency and amplitude of spontaneous movement
[12] = Rattus norvegicus, oxytocin 2×10^-2 U/ml, hydrochlorides applied, Tyrode solution 36°C
[13] = oxytocin-contracted isolated rat myometrium
[14] = acute toxicity, range stated for all three types, read-out: 50% lethal dose (LD50)
[15] = mice, confidence limits given, read-out: LD50 (Confidence limit)

Compound | relaxation response of tracheal muscle [1] | IC50 [1, 9] | sequence of intensities of relaxation activity [1] | relaxation intensity relative to (±)-ritodrine, by IC50 on isolated tracheal muscle [1] | vascular permeability, positive at 0.001% ([2]; guinea pig) | vascular permeability, positive at 0.01% ([2]; guinea pig) | vascular permeability, positive at 0.1% ([2]; guinea pig) | ED50 [3, 10] | minimal effective dose [3, 11] | IC50 [4, 12] | minimal effective concentration [4, 13] | intensity of activity relative to (±)-ritodrine, by IC50 on isolated myometrium [4] | LD50 [5, 14] | LD50 [5, 15] | mortality at 50 mg/kg ([6]; i.v., dead/total) | mortality at 60 mg/kg ([6]; i.v., dead/total) | mortality at 70 mg/kg ([6]; i.v., dead/total) | mortality at 80 mg/kg ([6]; i.v., dead/total) | mortality at 90 mg/kg ([6]; i.v., dead/total) | sequence of safeties in developing the same level of relaxation effect on smooth muscle ([6]; mouse, in vivo) | other results
C[C@@H](NCCc1ccc(O)cc1)[C@@H](O)c1ccc(O)cc1 [(+)-isomer] | relaxation response depending on concentration | 5610 nM | (-)-isomer>(±)-isomer>>(+)-isomer | about 1/40 | 0/3 | 1/3 | 3/3 | 3.61 mg/kg | ≥ 1.5 mg/kg | 54600 nM | ≥ 10 µM | 1/15 | 50 to 100 mg/kg | 70 mg/kg | 0/5 | 1/5 | 2/5 | 4/5 | 5/5 | (-)-type>(±)-type>>(+)-type | 
C[C@H](NCCc1ccc(O)cc1)[C@H](O)c1ccc(O)cc1 (relative stereo) [(±)-isomer, (±)-erythro-1-(p-hydroxyphenyl)-2-[2-(p-hydroxyphenyl)ethylamino]-1-propanol] | relaxation response depending on concentration | 136 nM | (-)-isomer>(±)-isomer>>(+)-isomer |  | 0/3 | 0/3 | 3/3 | 0.106 mg/kg | ≥ 0.05 mg/kg | 3530 nM | 0.1 µM |  | 50 to 100 mg/kg | 83 mg/kg | 0/5 | 0/5 | 1/5 | 2/5 | 4/5 | (-)-type>(±)-type>>(+)-type | side effects ([7]; background): increase in heart rate; effectiveness in preventing premature birth / suppressing uterine contraction ([7]; known from Japanese Patent Publications): effective in preventing premature birth owing to its excellent activity for suppressing uterine contraction; vascular permeability, positive at 1% ([2]; guinea pig): 3/3; concentration dependence of suppressing effect [3]: increased depending on the concentration; concentration dependence of relaxation activity [4]: increased depending on the concentration; mortality at 100 mg/kg ([6]; i.v., 100 mg/kg, dead/total): 4/5
C[C@H](NCCc1ccc(O)cc1)[C@H](O)c1ccc(O)cc1.Cl [(-)-isomer, (1R,2S)-2-(4-Hydroxyphenethylamino)-1-(4-hydroxyphenyl)-1-propanol hydrochloride] | relaxation response depending on concentration |  | (-)-isomer>(±)-isomer>>(+)-isomer | about 2.3 times |  |  |  |  |  |  |  | about 2.6 times | 50 to 100 mg/kg | 64 mg/kg | 1/5 | 3/5 | 3/5 | 3/5 | 5/5 |  | IC50 [1]: 59.7 nM; vascular permeability, positive at 0.001% ([2]; intracutaneous, 0.001%, positive = dye area 5 mm or more, positive/total): 0/3; vascular permeability, positive at 0.01% ([2]; intracutaneous, 0.01%, positive = dye area 5 mm or more, positive/total): 1/3; vascular permeability, positive at 0.1% ([2]; intracutaneous, 0.1%, positive = dye area 5 mm or more, positive/total): 2/3; vascular permeability, positive at 1% ([2]; intracutaneous, 1%, positive = dye area 5 mm or more, positive/total): 3/3; ED50 [3]: 0.059 mg/kg; minimal effective dose [3]: ≥ 0.05 mg/kg; concentration dependence of suppressing effect [3]: increased depending on the concentration; concentration dependence of relaxation activity [4]: increased depending on the concentration; minimal effective concentration ([4]; Rattus norvegicus): 0.1 µM; IC50 ([4]; Rattus norvegicus): 1350 nM; smooth muscle relaxation activity relative to the (±)-type [8]: 2-3 times; mortality at 40 mg/kg ([6]; i.v., 40 mg/kg, dead/total): 0/5; sequence of safeties in developing the same level of relaxation effect on smooth muscle ([6]; ratio of smooth muscle relaxation to lethal toxicity, decreasing sequence): (-)-type>(±)-type>>(+)-type
